Results on eight molecules are retold here after ChEMBL document CHEMBL1134267 (Bioorg Med Chem Lett, 2001).

The target in assay [1] is Neuronal acetylcholine receptor alpha4/beta2 (Rattus norvegicus). The assay can be described thus: Affinity for Nicotinic acetylcholine receptor alpha4-beta2 tested by analogue-induced inhibition of [3H]NIC binding to rat striatal membranes.
Assay [2] concerns the target Neuronal acetylcholine receptor subunit alpha-7 (Rattus norvegicus, UniProt Q05941). The assay can be described thus: Affinity for alpha-7 neuronal nicotinic acetylcholine receptor subtype determined by inhibition of [3H]-MLA binding to rat brain membranes. It is filed as cell membranes, Membrane.

Chain of Neuronal acetylcholine receptor subunit alpha-7 (Q05941 whole entry): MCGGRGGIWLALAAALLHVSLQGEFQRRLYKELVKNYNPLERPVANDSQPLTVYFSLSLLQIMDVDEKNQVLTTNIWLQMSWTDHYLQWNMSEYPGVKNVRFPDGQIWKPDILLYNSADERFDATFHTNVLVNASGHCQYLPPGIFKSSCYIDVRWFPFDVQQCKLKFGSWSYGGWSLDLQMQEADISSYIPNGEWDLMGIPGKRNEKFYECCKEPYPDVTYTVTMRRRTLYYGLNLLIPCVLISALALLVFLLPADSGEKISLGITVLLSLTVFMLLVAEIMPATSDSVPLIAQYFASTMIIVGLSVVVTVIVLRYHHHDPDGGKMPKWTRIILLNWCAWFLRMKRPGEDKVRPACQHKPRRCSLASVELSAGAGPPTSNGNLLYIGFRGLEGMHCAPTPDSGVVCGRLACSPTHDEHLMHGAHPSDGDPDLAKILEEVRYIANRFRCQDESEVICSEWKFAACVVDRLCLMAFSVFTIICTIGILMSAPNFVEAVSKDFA

Consider `CN1CC[C@@H]2CCc3cc[n+]([BH2-]C#N)cc3[C@@H]21`, for which the values for the inhibitory constant (Ki) in assay [1] and in assay [2] were 2400 nM and 600 nM, respectively.

`c1cncc([C@@H]2CCCN2)c1` [NORNICOTINE] yielded an inhibition constant Ki in assay [2] of 1340 nM.

`CN1CC[C@H]2CCc3c(ccc[n+]3[BH2-]C#N)[C@H]21` gave an inhibition constant (Ki) in assay [2] above 100000 nM.

For the molecule `CN1CC[C@H]2CCc3ncccc3[C@H]21`, the inhibition constant Ki in assay [1] was 12200 nM; in assay [2] it was above 100000 nM.

`CN1CC[C@@H]2CCc3ccncc3[C@@H]21`: the inhibitory constant (Ki) came to 400 nM in assay [1] and 590 nM in assay [2].

Take `CN1CCC[C@H]1c1ccc[n+]([BH2-]C#N)c1`: the Ki in assay [1] is 15200 nM; in assay [2], 41 nM.

Take `c1cnc2c(c1)[C@H]1NCC[C@H]1CC2`: the Ki in assay [1] is 10500 nM; in assay [2], above 100000 nM.

`c1cc2c(cn1)[C@@H]1NCC[C@@H]1CC2` had a Ki in assay [2] of 20200 nM.

What is called Ki is the dissociation constant of the complex between target and ligand, obtained from inhibition or displacement.
